Experimental data published in patent publication US10913727B2, “Modulators of the integrated stress pathway” (Calico Life Sciences LLC, priority 2016, dated 2021).

Tested on: HEK293T cells carrying the ATF4 luciferase reporter
Assay: ATF4-Luc assay, in vitro model of Vanishing Cell White Matter Disease (VWMD)
Type: cell-based
Conditions: Homo sapiens, HEK-293T, 1 μg/mL tunicamycin, 7 hours, One Glo luminescence
How it was run: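 Compound at 200 nM and tunicamycin at 1 μg/mL were given together for 7 h to HEK293T cells stably transduced with an ATF4 5′-UTR-driven firefly luciferase reporter. Read-out by luminescence, reported as EC50.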

SMILES | EC50 [nM]
Cc1cc(C)c(C(=O)NC23CC(NC(=O)COc4ccc(Cl)c(F)c4)(C2)C3)cn1 [Compound 815, N-{3-[2-(4-chloro-3-fluorophenoxy)acetamido]bicyclo[1.1.1]pentan-1-yl}-4,6-dimethylpyridine-3-carboxamide] | > 2000
O=C(COc1ccc(Cl)c(F)c1)NC12CCC(NC(=O)c3ccno3)(CC1)CC2O (stereo not shown) [Compound 628, N-{4-[2-(4-chloro-3-fluorophenoxy)acetamido]-3-hydroxybicyclo[2.2.2]octan-1-yl}-1,2-oxazole-5-carboxamide] | 250 to 1000
O=C(COc1ccc(Cl)c(Cl)c1)NC12CC(NC(=O)c3cnccn3)(C1)C2 [Compound 164, N-{3-[2-(3,4-dichlorophenoxy)acetamido]bicyclo[1.1.1]pentan-1-yl}pyrazine-2-carboxamide] | 50 to 250
O=C(COc1ccc(Cl)c(F)c1)NC12CCC(NC(=O)c3cc(C(F)(F)F)no3)(CC1)C[C@@H]2O [Compound 704, N-{(3S)-4-[2-(4-chloro-3-fluorophenoxy)acetamido]-3-hydroxybicyclo[2.2.2]octan-1-yl}-3-(trifluoromethyl)-1,2-oxazole-5-carboxamide] | < 50
Cc1scnc1C(=O)NC12CC(NC(=O)COc3ccc(Cl)c(F)c3)(C1)C2 [Compound 541, N-{3-[2-(4-chloro-3-fluorophenoxy)acetamido]bicyclo[1.1.1]pentan-1-yl}-5-methyl-1,3-thiazole-4-carboxamide] | 1000 to 2000
O=C(COc1ccc(Cl)c(F)c1)NC12CCC(NC(=O)c3ccc4oc(=O)ccc4c3)(CC1)[C@@H](O)C2 [Compound 407, N-{(2S)-4-[2-(4-chloro-3-fluorophenoxy)acetamido]-2-hydroxybicyclo[2.2.2]octan-1-yl}-2-oxo-2H-1-benzopyran-6-carboxamide] | 1000 to 2000
COc1cc(C(=O)NC23CC(NC(=O)COc4ccc(Cl)c(F)c4)(C2)C3)ccc1F [Compound 531, N-{3-[2-(4-chloro-3-fluorophenoxy)acetamido]bicyclo[1.1.1]pentan-1-yl}-4-fluoro-3-methoxybenzamide] | 1000 to 2000
Cn1cccc1C(=O)NC12CC(NC(=O)COc3ccc(Cl)c(F)c3)(C1)C2 [Compound 821, N-{3-[2-(4-chloro-3-fluorophenoxy)acetamido]bicyclo[1.1.1]pentan-1-yl}-1-methyl-1H-pyrrole-2-carboxamide] | > 2000
O=C(COc1ccc(Cl)c(F)c1)NC12CC(NC(=O)c3ccc4nccn4c3)(C1)C2 [Compound 811, N-{3-[2-(4-chloro-3-fluorophenoxy)acetamido]bicyclo[1.1.1]pentan-1-yl}imidazo[1,2-a]pyridine-6-carboxamide] | > 2000
O=C(COc1ccc(Cl)c(F)c1)NC12CCC(NC(=O)c3cccnc3)(CC1)C(O)C2 (stereo not shown) [Compound 217, N-{4-[2-(4-chloro-3-fluorophenoxy)acetamido]-2-hydroxybicyclo[2.2.2]octan-1-yl}pyridine-3-carboxamide] | 1000 to 2000
CCc1nc(C)c(C(=O)NC23CC(NC(=O)COc4ccc(Cl)c(F)c4)(C2)C3)o1 [Compound 906, N-{3-[2-(4-chloro-3-fluorophenoxy)acetamido]bicyclo[1.1.1]pentan-1-yl}-2-ethyl-4-methyl-1,3-oxazole-5-carboxamide] | 250 to 1000
O=C(COc1ccc(Cl)c(F)c1)NC12CC(NC(=O)c3cnn(C(F)F)c3)(C1)C2 [Compound 724, N-{3-[2-(4-chloro-3-fluorophenoxy)acetamido]bicyclo[1.1.1]pentan-1-yl}-1-(difluoromethyl)-1H-pyrazole-4-carboxamide] | 250 to 1000
O=C(COc1ccc(Cl)c(F)c1)NC12CCC(NC(=O)c3cc(CO)ccn3)(CC1)C[C@@H]2O [Compound 680, N-{(3S)-4-[2-(4-chloro-3-fluorophenoxy)acetamido]-3-hydroxybicyclo[2.2.2]octan-1-yl}-4-(hydroxymethyl)pyridine-2-carboxamide] | < 50
Cc1c(C(=O)NC23CC(NC(=O)COc4ccc(Cl)c(F)c4)(C2)C3)cnn1C [Compound 882, N-{3-[2-(4-chloro-3-fluorophenoxy)acetamido]bicyclo[1.1.1]pentan-1-yl}-1,5-dimethyl-1H-pyrazole-4-carboxamide] | > 2000
NS(=O)(=O)c1ccc(C(=O)NC23CC(NC(=O)COc4ccc(Cl)c(F)c4)(C2)C3)o1 [Compound 905, N-{3-[2-(4-chloro-3-fluorophenoxy)acetamido]bicyclo[1.1.1]pentan-1-yl}-5-sulfamoylfuran-2-carboxamide] | > 2000
O=C(COc1ccc(Cl)c(F)c1)NC12CCC(NC(=O)c3cncs3)(CC1)CC2O (stereo not shown) [Compound 593, N-{4-[2-(4-chloro-3-fluorophenoxy)acetamido]-3-hydroxybicyclo[2.2.2]octan-1-yl}-1,3-thiazole-5-carboxamide] | 50 to 250
Cc1noc(C(=O)NC23CC(NC(=O)COc4ccc(Cl)c(F)c4)(C2)C3)n1 [Compound 375, N-{3-[2-(4-chloro-3-fluorophenoxy)acetamido]bicyclo[1.1.1]pentan-1-yl}-3-methyl-1,2,4-oxadiazole-5-carboxamide] | 50 to 250

SMILES | EC50 [nM]
COCc1cccc(C(=O)NC23CC(NC(=O)COc4ccc(Cl)c(F)c4)(C2)C3)n1 [Compound 174, N-{3-[2-(4-chloro-3-fluorophenoxy)acetamido]bicyclo[1.1.1]pentan-1-yl}-6-(methoxymethyl)pyridine-2-carboxamide] | 250 to 1000
O=C(COc1ccc(F)c(F)c1)NC12CCC(NC(=O)c3ccc(C(F)(F)F)cn3)(CC1)C(O)C2 (stereo not shown) [Compound 349, N-{4-[2-(3,4-difluorophenoxy)acetamido]-2-hydroxybicyclo[2.2.2]octan-1-yl}-5-(trifluoromethyl)pyridine-2-carboxamide] | 250 to 1000
O=C(COc1ccc(Cl)c(Cl)c1)NC12CC(NC(=O)c3ccc(OCCO)nc3)(C1)C2 [Compound 158, N-{3-[2-(3,4-dichlorophenoxy)acetamido]bicyclo[1.1.1]pentan-1-yl}-6-(2-hydroxyethoxy)pyridine-3-carboxamide] | 250 to 1000
O=C(COc1ccc(Cl)c(F)c1)NC12CCC(NC(=O)c3ccsn3)(CC1)C[C@@H]2O [Compound 695, N-{(3S)-4-[2-(4-chloro-3-fluorophenoxy)acetamido]-3-hydroxybicyclo[2.2.2]octan-1-yl}-1,2-thiazole-3-carboxamide] | < 50
O=C(COc1ccc(Cl)c(F)c1)NC12CCC(NC(=O)c3cnccn3)(CC1)[C@@H](O)C2 [Compound 732, N-{(2S)-4-[2-(4-chloro-3-fluorophenoxy)acetamido]-2-hydroxybicyclo[2.2.2]octan-1-yl}pyrazine-2-carboxamide] | 250 to 1000
Cc1cc(C(=O)NC23CCC(NC(=O)COc4ccc(Cl)c(F)c4)(CC2)C(O)C3)on1 (stereo not shown) [Compound 326, N-{4-[2-(4-chloro-3-fluorophenoxy)acetamido]-3-hydroxybicyclo[2.2.2]octan-1-yl}-3-methyl-1,2-oxazole-5-carboxamide] | 50 to 250
O=C(COc1ccc(Cl)c(F)c1)NC12CC(NC(=O)c3nnc4n3CCCC4)(C1)C2 [Compound 844, N-{3-[2-(4-chloro-3-fluorophenoxy)acetamido]bicyclo[1.1.1]pentan-1-yl}-5,6,7,8-tetrahydro[1,2,4]triazolo[4,3-a]pyridine-3-carboxamide] | > 2000
O=C(COc1ccc(Cl)c(F)c1)NC12CC(NC(=O)c3ccc4ccccc4n3)(C1)C2 [Compound 586, N-{3-[2-(4-chloro-3-fluorophenoxy)acetamido]bicyclo[1.1.1]pentan-1-yl}quinoline-2-carboxamide] | < 50
O=C(COc1ccc(Cl)c(F)c1)NC12CCC(NC(=O)c3ccc(OC(F)(F)F)nc3)(C1)C2 [Compound 298, N-{4-[2-(4-chloro-3-fluorophenoxy)acetamido]bicyclo[2.1.1]hexan-1-yl}-6-(trifluoromethoxy)pyridine-3-carboxamide] | 50 to 250
O=C(COc1ccc(Cl)c(F)c1)NC12CC(NC(=O)c3ccc[nH]3)(C1)C2 [Compound 307, N-{3-[2-(4-chloro-3-fluorophenoxy)acetamido]bicyclo[1.1.1]pentan-1-yl}-1H-pyrrole-2-carboxamide] | 250 to 1000
O=C(COc1ccc(Cl)c(F)c1)NC12CC(NC(=O)c3cnccn3)(C1)C2 [Compound 175, N-{3-[2-(4-chloro-3-fluorophenoxy)acetamido]bicyclo[1.1.1]pentan-1-yl}pyrazine-2-carboxamide] | 250 to 1000
COc1ccc(F)c(C(=O)NC23CC(NC(=O)COc4ccc(Cl)c(F)c4)(C2)C3)c1 [Compound 520, N-{3-[2-(4-chloro-3-fluorophenoxy)acetamido]bicyclo[1.1.1]pentan-1-yl}-2-fluoro-5-methoxybenzamide] | 250 to 1000
O=C(COc1ccc(Cl)c(F)c1)NC12CCC(NC(=O)c3cccc[n+]3[O-])(CC1)CC2O (stereo not shown) [Compound 944, N-{4-[2-(4-chloro-3-fluorophenoxy)acetamido]-3-hydroxybicyclo[2.2.2]octan-1-yl}-1-oxo-1λ^5-pyridine-2-carboxamide] | > 2000
Cc1nc(C(=O)NC23CC(NC(=O)COc4ccc(Cl)c(Cl)c4)(C2)C3)cs1 [Compound 559, N-{3-[2-(3,4-dichlorophenoxy)acetamido]bicyclo[1.1.1]pentan-1-yl}-2-methyl-1,3-thiazole-4-carboxamide] | < 50
Cc1cc(C(=O)NC23CCC(NC(=O)COc4ccc(Cl)c(F)c4)(CC2)[C@H](O)C3)on1 (single isomer, unassigned) [Compound 357] | 250 to 1000
N#Cc1ccc(C(=O)NC23CC(NC(=O)COc4ccc(Cl)c(F)c4)(C2)C3)nc1 [Compound 173, N-{3-[2-(4-chloro-3-fluorophenoxy)acetamido]bicyclo[1.1.1]pentan-1-yl}-5-cyanopyridine-2-carboxamide] | 50 to 250
Cc1cnc(C(=O)NC23CC(NC(=O)COc4ccc(C(F)(F)F)nc4)(C2)C3)cn1 [Compound 162, 5-methyl-N-[3-(2-{[6-(trifluoromethyl)pyridin-3-yl]oxy}acetamido)bicyclo[1.1.1]pentan-1-yl]pyrazine-2-carboxamide] | > 2000
